What was measured:
Format in all cases: in vivo
[1] = test system: GALIUM APARINE; test: Postemergence herbicidal evaluation, GALAP (Galium); design: key to GALAP rating / Herbicidal effect rating, GALAP / GALAP: 0-9 visual rating scale vs untreated control;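 for GALAP: higher means more injury with 8 approaching complete kill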
Procedure, shortened: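 Galium (GALAP) seedlings were raised in jiffy flats for about two weeks, then sprayed with test compounds dispersed in 50/50 acetone/water containing 0.5% TWEEN®20, delivered through a nozzle at 40 psi. Plants were kept on greenhouse benches and visually rated 0-9 against a control four to five weeks later; repeat tests were averaged.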

[2] = test system: GLYCINE MAX(L) MERR. CV. WILLIAMS; test: Postemergence herbicidal evaluation, GLXMAW (Soybean, Williams); design: key to GLXMAW rating / Herbicidal effect rating, GLXMAW / GLXMAW: 0-9 visual rating scale vs untreated control
Procedure, shortened: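 Soybean seedlings (Williams) were raised in jiffy flats for roughly two weeks, then sprayed postemergence through a nozzle at 40 psi with test compound dispersed in 50/50 acetone/water containing 0.5% TWEEN®20. Treated plants were kept on greenhouse benches under normal care and visually rated on a 0-9 scale four to five weeks later.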

[3] = test system: ORYZA SATIVA, L. TEBONNET; test: Postemergence herbicidal evaluation, ORYSAT (Rice, Tebonnet); design: key: 0-9 visual rating scale vs untreated control
Protocol: In the tests, seedling plants are grown in jiffy flats for about two weeks. The test compounds are dispersed in 50/50 acetone/water mixtures containing 0.5% TWEEN®20, a polyoxyethylene sorbitan monolaurate surfactant of Atlas Chemical Industries, in sufficient quantities to provide the equivalent of about 0.125 kg to 0.500 kg per hectare of active compound when applied to the plants through a spray nozzle operating at 40 psi for a predetermined time. After spraying, the plants are placed on greenhouse benches and are cared for in the usual manner, commensurate with conventional greenhouse practices. From four to five weeks after treatment, the seedling plants are examined and rated according to the rating system set forth below. Where more than one test is involved for a given compound, the data are averaged.
Plant species employed in these evaluations are reported by header abbreviation, common name and scientific name.
Results of herbicide evaluation are expressed on a rating scale (0-9). The scale is based upon a visual observation of plant stand, vigor, malformation, size, chlorosis and overall plant appearance as compared with a control.

[4] = test system: GALIUM APARINE; test: Preemergence herbicidal evaluation, GALAP (Galium); settings: four to five weeks after treatment
Procedure, shortened: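 Seeds sown in potting soil cups, then sprayed preemergence with aqueous acetone compound solution at about 0.125 to 0.50 kg per hectare. Greenhouse-grown, rated 4–5 weeks after treatment on a 0–9 visual scale against control.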

[5] = test system: ECHINOCHLOA ORYZOIDES (ARD.)FRITSCH; test: Preemergence weed control under flooded paddy conditions, ECHORC (Watergrass (Calif.)); settings: pre-weed
Procedure, shortened: (§1)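 Flooded paddy preemergence test: seeds/propagating organs in top 0.5 cm silt loam, water held 1.5-3 cm above soil. Dosing by pipette into flood water, aqueous/acetone 50/50 v/v, ~0.5, 0.25, 0.125, 0.063 kg/ha a.i. Greenhouse; read at 3-4 wk, 0-9 visual scale.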

[6] = test system: CYPERUS SEROTINUS, ROTTB.; test: Preemergence weed control under flooded paddy conditions, CYPSE (Flatsedge); settings: pre-weed
Procedure, shortened: as §1

[7] = test system: SAGITTARIA PYGMAEA, L.; test: Preemergence weed control under flooded paddy conditions, SAGPY (Arrowhead (Pygmaea)); settings: pre-weed
Procedure, shortened: as §1

[8] = test system: CASSIA OBTUSIFOLIA, L.; test: Preemergence herbicidal evaluation, CASOB (Sicklepod)
Procedure, shortened: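 Seeds of various monocot and dicot plants, including sicklepod, were each mixed with potting soil and sown on roughly one inch of soil in separate pint cups for preemergence testing. Treated cups were kept on greenhouse benches, watered and maintained conventionally. Four to five weeks after treatment, each cup was visually rated on a 0-9 scale against a control.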

[9] = test system: CYPERUS IRIA; test: Preemergence weed control under flooded paddy conditions, CYPIR (Rice Flatsedge); settings: pre-weed
Procedure, shortened: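 Seeds or propagating organs of rice flatsedge were planted in the top 0.5 cm of silt loam soil in 32 oz. plastic containers, 10.5 cm across and without drainage holes. Water was kept 1.5 to 3 cm above the soil throughout. Treated containers were kept on greenhouse benches, and herbicidal effect was visually rated on a 0-9 scale against a control.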

[10] = test system: […], PRESL.; test: Preemergence weed control under flooded paddy conditions, MOOVA (Monochoria); settings: pre-weed
Procedure, shortened: as §1

COC(=O)Cn1c(=O)n(C)c(=O)n(-c2cc(Oc3c(F)cc(C(F)(F)F)cc3Cl)ccc2F)c1=O [Compound 4, Methyl 3-{5-[(2-chloro-α,α,α,6-tetrafluoro-p-tolyl)oxy]-2-fluorophenyl}tetrahydro-5-methyl-2,4,6-trioxo-s-triazine-1(2H)-acetate]
Herbicidal effect rating, GALAP ([1]; 0.031 kg/ha): 7.3
Herbicidal effect rating, GALAP ([1]; 0.063 kg/ha): 8.4
Herbicidal effect rating, GALAP ([1]; 0.125 kg/ha): 8.8
Herbicidal effect rating, GALAP ([1]; 0.250 kg/ha): 8.1
Herbicidal effect rating, GLXMAW ([2]; 0.031 kg/ha): 5.1
Herbicidal effect rating, GLXMAW ([2]; 0.063 kg/ha): 5.7
Herbicidal effect rating, GLXMAW ([2]; 0.125 kg/ha): 6.4
Herbicidal effect rating, GLXMAW ([2]; 0.250 kg/ha): 7.3
Herbicidal effect rating, ORYSAT ([3]; 0.031 kg/ha): 4.6
Herbicidal effect rating, ORYSAT ([3]; 0.063 kg/ha): 5.0
Herbicidal effect rating, ORYSAT ([3]; 0.125 kg/ha): 5.7
Herbicidal effect rating, ORYSAT ([3]; 0.250 kg/ha): 6.4
GALAP rating ([4]; Rate 0.125 kg/ha): 7.3
GALAP rating ([4]; Rate 0.250 kg/ha): 9.0
GALAP rating ([4]; Rate 0.500 kg/ha): 9.0

Cn1c(=O)[nH]c(=O)n(-c2cc(Oc3ccc(C(F)(F)F)cc3Cl)ccc2Cl)c1=O [F, reference compound]
GALAP ([1]; Rate 0.016 kg/ha): 5.0
GALAP ([1]; Rate 0.032 kg/ha): 6.0
GALAP ([1]; Rate 0.063 kg/ha): 6.0
GALAP ([1]; Rate 0.125 kg/ha): 6.0
GALAP ([1]; Rate 0.250 kg/ha): 8.0
GALAP ([1]; Rate 0.500 kg/ha): 6.0
GLXMAW ([2]; Rate 0.016 kg/ha): 3.5
GLXMAW ([2]; Rate 0.032 kg/ha): 3.5
GLXMAW ([2]; Rate 0.063 kg/ha): 4.5
GLXMAW ([2]; Rate 0.125 kg/ha): 4.0
GLXMAW ([2]; Rate 0.250 kg/ha): 5.5
GLXMAW ([2]; Rate 0.500 kg/ha): 5.5
ORYSAT ([3]; Rate 0.016 kg/ha): 1.5
ORYSAT ([3]; Rate 0.032 kg/ha): 1.5
ORYSAT ([3]; Rate 0.063 kg/ha): 2.5
ORYSAT ([3]; Rate 0.125 kg/ha): 3.0
ORYSAT ([3]; Rate 0.250 kg/ha): 3.0
ORYSAT ([3]; Rate 0.500 kg/ha): 3.0
ECHORC ([5]; Rate 0.031 kg/ha): 0.0
ECHORC ([5]; Rate 0.063 kg/ha): 0.0
ECHORC ([5]; Rate 0.125 kg/ha): 0.0
ECHORC ([5]; Rate 0.250 kg/ha): 0.0
CYPSE ([6]; Rate 0.031 kg/ha): 0.0
CYPSE ([6]; Rate 0.063 kg/ha): 0.0
CYPSE ([6]; Rate 0.125 kg/ha): 0.0
CYPSE ([6]; Rate 0.250 kg/ha): 0.0
SAGPY ([7]; Rate 0.031 kg/ha): 0.0
SAGPY ([7]; Rate 0.063 kg/ha): 0.0
SAGPY ([7]; Rate 0.125 kg/ha): 0.0
SAGPY ([7]; Rate 0.250 kg/ha): 0.0

Cn1c(=O)[nH]c(=O)n(-c2cccc(Oc3ccc(C(F)(F)F)cc3Cl)c2)c1=O [E, reference compound]
GALAP ([1]; Rate 0.063 kg/ha): 3.0
GALAP ([1]; Rate 0.125 kg/ha): 4.0
GALAP ([1]; Rate 0.250 kg/ha): 5.0
GALAP ([1]; Rate 0.500 kg/ha): 2.5
GLXMAW ([2]; Rate 0.063 kg/ha): 2.0
GLXMAW ([2]; Rate 0.125 kg/ha): 2.5
GLXMAW ([2]; Rate 0.250 kg/ha): 3.0
GLXMAW ([2]; Rate 0.500 kg/ha): 3.5
ORYSAT ([3]; Rate 0.063 kg/ha): 1.5
ORYSAT ([3]; Rate 0.125 kg/ha): 2.0
ORYSAT ([3]; Rate 0.250 kg/ha): 2.0
ORYSAT ([3]; Rate 0.500 kg/ha): 3.0
CASOB ([8]; Rate 0.125 kg/ha): 0.0
CASOB ([8]; Rate 0.250 kg/ha): 0.0
CASOB ([8]; Rate 0.500 kg/ha): 0.0
CASOB ([8]; Rate 1.000 kg/ha): 0.0
ECHORC ([5]; Rate 0.250 kg/ha): 0.0
ECHORC ([5]; Rate 0.500 kg/ha): 0.0
ECHORC ([5]; Rate 1.000 kg/ha): 0.0
CYPIR ([9]; Rate 0.250 kg/ha): 0.0
CYPIR ([9]; Rate 0.500 kg/ha): 0.0
CYPIR ([9]; Rate 1.000 kg/ha): 0.0
CYPSE ([6]; Rate 0.250 kg/ha): 0.0
CYPSE ([6]; Rate 0.500 kg/ha): 0.0
CYPSE ([6]; Rate 1.000 kg/ha): 0.0
MOOVA ([10]; Rate 0.250 kg/ha): 0.0
MOOVA ([10]; Rate 0.500 kg/ha): 0.0
MOOVA ([10]; Rate 1.000 kg/ha): 0.0
SAGPY ([7]; Rate 0.250 kg/ha): 0.0
SAGPY ([7]; Rate 0.500 kg/ha): 0.0
SAGPY ([7]; Rate 1.000 kg/ha): 0.0
